Results reported in patent publication US20060160906A1, “Polyamine analogs as therapeutic agents for ocular diseases” (priority 2004, published 2006).
“Also recorded” adds a separate entry of the source.

What was measured:
[1] = test system: choroidal neovascularization (CNV) at Bruch's membrane rupture sites; assay: Mouse model of laser-induced choroidal neovascularization (rupture of Bruch's membrane), CNV area on choroidal flat mounts; assay type: in vivo, C57BL/6J mice
[2] = Tolerability of intraperitoneal injections in mice; assay type: in vivo
[3] = test system: retinal structure; assay: Retinal structure in hematoxylin and eosin stained retinal sections; assay type: in vivo, mice
Procedure: The remaining 10 mice were given an intravitreous injection of 20 μg of CGC-11144 in one eye and vehicle in the fellow eye on days 7 and 10 and then CNV area was measured at each rupture site at 14 days after laser (n=30 in each group). […] After 3 days, ERGs were performed as described in Methods. […] (In FIGS. 3C-3F, retinal sections were stained with hematoxylin and eosin; FIG. 3C and FIG. 3E, 40×; FIG. 3D and FIG. 3F, 100×.)

[4] = test system: CNV lesions; assay: TUNEL staining for apoptosis within CNV lesions; assay type: in vivo, C57BL/6 mice; conditions: periocular 200 μg on days 7 and 8 after laser
Procedure: On days 7 and 8 after laser-induced rupture of Bruch's membrane, adult female C57BL/6 mice received a periocular injection of 0.2 mg of CGC-11144 or vehicle and then they were euthanized. Eyes were embedded in OCT and 10 μm serial sections were cut through CNV lesions and fixed with 1% paraformaldehyde for 10 minutes at room temperature. TUNEL staining was done using an ApopTag Fluorescein Red Kit (Intergen, Purchase, N.Y.) following the manufacturer's instructions. Adjacent sections were stained for GSA to visualize vascular cells on some sections; TUNEL staining was done to identify cell undergoing apoptosis on adjacent sections.

[5] = test system: retinal neovascularization; assay: Oxygen-induced ischemic retinopathy, retinal neovascularization; assay type: in vivo, neonatal C57BL/6 mice; conditions: 100 μg CGC-11144, 1 mg CGC-11047, 750 μg CGC-11093
Procedure: Ischemic retinopathy can be produced in neonatal C57BL/6 mice as described (Smith, L. E et al., Invest. Opthalmol. Vis. Sci. 35: 101-111 (1994)) and serves as a model for retinopathy of prematurity (ROP). Post-natal day 7 (P7) mice and their mothers were placed in an airtight incubator and exposed to an atmosphere of 75±3% oxygen for 5 days. Incubator temperature was maintained at 23±2° C. and oxygen was continuously monitored with a PROOX model 110 oxygen controller (Reming Bioinstruments Co., Redfield, N.Y.). At post-natal day 12, mice were placed back in room air and were given a periocular injection of 3 μl containing 100 μg of CGC-11144 (n=4), 1 mg of CGC-11047 (n=4), 750 μg of CGC-11093 (n=4) or vehicle. On post-natal day 17 (P17) the treated and control mice were euthanized and the amount of retinal neovascularization was measured.
For measurement of retinal neovascularization, eyes were removed and fixed in 2% paraformaldehyde in phosphate buffered saline (PBS) for one hour and rinsed twice in 25% sucrose in PBS. Specimens were incubated in 25% sucrose in PBS overnight and embedded in OCT compound (Miles Diagnostics, Elkhart, Ind.),). 10 μm frozen sections were post-fixed for 15 minutes in 0.5% glutaraldehyde in PBS and washed in PBS. Sections were also histochemically stained with biotinylated Griffonia simplicifolia lectin B4 (GSA, Vector Laboratories, Burlingame, Calif.), which selectively binds to vascular cells. Slides were incubated in methanol/H2O2 for 10 minutes at 4° C., washed with 0.05 M Tris-buffered saline, pH 7.6 (TBS), and incubated for 30 minutes in 10% normal porcine serum. Slides were incubated 2 hours at room temperature with biotinylated GSA and after rinsing with 0.05M TBS, they were incubated with avidin coupled to peroxidase (Vector Laboratories, Burlingame, Calif.) for 30 minutes at room temperature. After being washed for 10 minutes with 0.05M TBS, slides were incubated with diaminobenzidine (Research Genetics, Huntsville, Ala.) to give a brown reaction product.
To perform quantitative assessments, 10 μm frozen serial sections were cut from the iris root on one side of the eye to the iris root on the opposite side of the eye and every tenth section was stained with GSA. Retinas were examined with an Axioskop microscope and images were digitized using a 3 CCD color video camera and a frame grabber. Image-Pro Plus software was used to delineate GSA-stained vascular cells above the internal limiting membrane and the total area of staining was measured.
To investigate the effect of these agents on regression of retinal neovascularization, ischemic retinopathy was induced and left untreated until P17, when the baseline amount of retinal neovascularization was measured in one group of mice. From post-natal days 17 to 20 (P17 to P20) the remainder of the mice were given daily periocular injections of 100 μg of CGC-11144 (n=4), 1 mg of CGC-11047 (n=4), 750 μg of CGC-11093 (n=4) or vehicle. On P20 the mice were euthanized and the amount of retinal neovascularization in the treated and control mice was measured as described above.

[6] = test system: subretinal neovascularization; assay: Rhodopsin/VEGF transgenic mice, subretinal neovascularization; assay type: in vivo, rhodopsin/VEGF transgenic mice (V6 mice); conditions: periocular injection at P7, measured P21; 100 μg CGC-11144, 1 mg CGC-11047, 750 μg CGC-11093
Description: Transgenic mice (V6 mice) in which the rhodopsin promoter drives expression of VEGF165 in photoreceptors have onset of VEGF expression at post-natal day 7 (P7) and soon after begin to develop neovascularization originating from the deep capillary bed that grows through the photoreceptor layer into the subretinal space. (Okamoto N et al., Amer. J. Pathol. 151: 281-91 (1997); Tobe T et al., Invest. Ophthalmol. Vis. Sci. 39: 180-188 (1998)). Hemizygous transgene positive mice were given a periocular injection of 100 μg of CGC-11144 (n=3), 1 mg of CGC-11047 (n=3), 750 μg of CGC-11093 (n=3) or vehicle (n=7) at P7. At post-natal day 21 (P21), mice were euthanized and the amount of subretinal neovascularization was quantified as previously described (Tobe, ibid.). Briefly, mice were anesthetized, perfused with fluorescein-labeled dextran, and the number of neovascular lesions on the outer surface of the retina and their total area were measured on retinal flat mounts by image analysis as described in Example 1.

In the case of `CCNCCCCNCCCCNCCCCNCCCCNC/C=C/CNCCCCNCCCCNCCCCNCCCCNCC.Cl.Cl.Cl.Cl.Cl.Cl.Cl.Cl.Cl.Cl` [CGC-11144], the “area of CNV vs day 7 baseline and vehicle fellow eyes (regression)” value ([1]; daily periocular injections days 7 to 14, 200 μg CGC-11144, 100 μg DFMO, or both) is reported as “significant reduction in CNV area; also recorded: significantly less”, the “area of CNV vs controls (no injection or vehicle-injected fellow eye)” value ([1]; intraocular 20 μg on days 0 and 7 after rupture) is reported as “significantly less CNV than corresponding controls” and the “decrease in area of CNV compared to vehicle-treated or untreated eyes” value ([1]; intravitreous 20 μg on days 0 and 7 after rupture, measured day 14) is reported as “approximately 40%”. The “area of established CNV vs vehicle fellow eyes and vs 7 day baseline (regression)” value ([1]; intravitreous 20 μg on days 7 and 10, measured day 14) was “significantly smaller in area”, the “size (area) of CNV lesions vs vehicle” value ([1]; ip 10 mg/kg twice a week, 2 weeks after rupture of Bruch's membrane, 10 mg/kg) was “statistically significant reductions in the size of CNV lesions; also recorded: small, but significant reductions in CNV” and the “size (area) of CNV lesions vs vehicle” value ([1]; ip 20 mg/kg twice a week, surviving mice, 20 mg/kg) was “small statistically significant reductions in CNV lesion size; also recorded: small, but significant reductions in CNV”. For the same molecule, the “decrease in CNV area compared to vehicle-treated eyes” value ([1]; periocular 200 μg 3 times a week, day 14) was 40%, the “area of established CNV vs vehicle fellow eyes and 7 day baseline (regression)” value ([1]; periocular 200 μg on days 7, 10 and 13, measured day 14) was “significant decrease in area of CNV; also recorded: significantly smaller” and the “area of CNV vs controls (no injection or vehicle-injected fellow eye)” value ([1]; periocular 200 μg three times a week, day 14) was “significantly less CNV than corresponding controls”. For the same molecule, the “amount of CNV on day 14 vs vehicle (suppression)” value ([1]; single periocular injection at time of rupture, 200 μg CGC-11144, 2 mg CGC-11047, 1.5 mg CGC-11093) was “significantly reduced the amount of CNV”, the “amount of CNV vs vehicle (duration of effect)” value ([1]; single periocular injection one week prior to rupture, 200 μg CGC-11144, 2 mg CGC-11047, 1.5 mg CGC-11093) was “significant reduction of the amount of CNV” and the “amount of CNV vs vehicle (duration of effect)” value ([1]; single periocular injection two weeks prior to rupture, 200 μg CGC-11144, 2 mg CGC-11047, 1.5 mg CGC-11093) was “no significant effect”. For the same molecule, the tolerability ([2]; ip 10 mg/kg twice a week) was “well tolerated”, the tolerability ([2]; ip 20 mg/kg twice a week, 2-week treatment period) was “not well tolerated and several mice died” and the appearance of retinas ([3]; daily periocular 200 μg for 14 days) was “normal-appearing retinas”. For the same molecule, the “retinal structure / morphology” value ([3]; intravitreous 20 μg) was “markedly disrupted; also recorded: substantial disruption of the morphology of the retina”, the “TUNEL-stained (apoptotic) cells within CNV lesions” value [4] was “many TUNEL-stained cells within CNV lesions; also recorded: several red TUNEL-stained nuclei located within the CNV lesion” and the “amount of retinal neovascularization at P20 vs vehicle (regression)” value ([5]; daily periocular injections P17 to P20) was “significantly less neovascularization”. The “amount of retinal neovascularization at P17 vs vehicle (suppression)” value ([5]; periocular injection at P12) was “significantly less” and the “subretinal neovascularization vs vehicle” value [6] was “significantly less subretinal neovascularization”.
